Measurements published in patent publication US20040072871A1, “Novel thiophene derivatives, their process of preparation and the pharmaceutical compositions which comprise them” (priority 2002, published 2004).
Where a name gives a salt, the structure may show the parent alone.

Columns and labels:
[1] = molecular target: MMP-12 (Homo sapiens, UniProt P39900); assay: In vitro inhibition of proteolysis of fluorogenic peptide substrate FP-1 by MMP-12; type: biochemical; details: substrate FP-1 10 μM, 20 minutes at ambient temperature, compounds tested 0.3 to 30 μM
Chain of MMP-12 (P39900 106-470): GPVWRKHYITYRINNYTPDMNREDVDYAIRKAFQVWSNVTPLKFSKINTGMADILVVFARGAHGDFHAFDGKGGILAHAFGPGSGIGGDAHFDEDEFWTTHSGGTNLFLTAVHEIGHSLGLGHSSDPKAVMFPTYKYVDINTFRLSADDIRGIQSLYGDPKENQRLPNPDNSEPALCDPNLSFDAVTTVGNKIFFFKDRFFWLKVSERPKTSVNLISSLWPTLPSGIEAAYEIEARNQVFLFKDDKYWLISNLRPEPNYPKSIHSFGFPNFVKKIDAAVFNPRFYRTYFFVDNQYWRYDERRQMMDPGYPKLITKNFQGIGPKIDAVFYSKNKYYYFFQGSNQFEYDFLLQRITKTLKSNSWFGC
Description: (§1) The inhibitory activity of the compounds of formula (I) with regard to metalloproteinase-12 is evaluated by testing the ability of the compounds of the invention to inhibit the proteolysis of a peptide substrate by MMP-12.
(§2) The inhibitory activity of a compound of formula (I) is expressed as IC50 value, which represents the concentration of inhibitor at which a degree of inhibition of the metalloproteinase of 50% is observed.
(§3) The reaction begins with the sequential addition of 41 μl of substrate FP-1 (final concentration of 10 μM) to a buffer solution of 50 mM of Tris-HCl and 10 mM of CaCl2, which comprises 5 mM of hydroxamic acid and 5 μl of the enzyme diluted in a 0.005% Brij-35 buffer solution. The microplates are incubated for 20 minutes at ambient temperature. The compounds of the invention are tested at concentrations varying from 0.3 to 30 μM.
(§4) The measurement of the amount of proteolysis of the peptide substrate is monitored by a measurement of absorbance at 405 nm using a microplate spectrophotometer, at ambient temperature. The IC50 values are calculated from curves in which the percentage of the catalytic activity relative to the control is represented on the […] and the concentration of inhibitor is represented on the Y axis.

[2] = molecular target: MMP-13 (Homo sapiens, UniProt P45452); assay: MMP-12 test adapted to MMP-13; type: biochemical
Description: as §1, §2, §3, §4
The test described above for the inhibition of MMP-12 is adapted and used to determine the ability of the compounds of formula (I) to inhibit the metalloproteinases MMP-1, MMP-2, MMP-3, MMP-7, MMP-9, MMP-13 and MMP-14. […] More specifically, the compounds of the present invention generally show a selectivity with a factor of greater than 50 with respect to the metalloproteinases mentioned above, except towards MMP-13. Thus, the compounds of the present invention also show an inhibitory activity with regard to MMP-13, making it possible to also use the pharmaceutical compositions comprising one or more compounds of the invention in the treatment of pathologies related to activity of MMP-13. Mention may be made, among these pathologies, by way of indication and without implied limitation, of cancer, osetoporosis, osteoarthritis, arthritis, rheumatoid arthritis, atherosclerosis, multiple sclerosis, cardiac insufficiency, asthma and chronic obstructive pulmonary disease.

| Compound | IC50 [1] [µM] | IC50 [2] [µM] |
| --- | --- | --- |
| 2-(4-{[(4-{4-[4-(2-Oxopropyl)-3-hydroxyphenyl]phenyl}thien-2-yl)carboxamido]methyl}phenyl)acetic acid [Example 119] | 0.13 | 0.78 |
| O=C(NCCN1CCOCC1)c1cc(-c2ccc(-c3ccccc3F)cc2)cs1 [Example 120, 4-[4-(2-Fluorophenyl)phenyl]-N-(2-morpholin-4-ylethyl)thiophene-2-carboxamide] | 0.66 | 6.1 |
| O=C(NCc1cc(F)c(O)c(F)c1)c1cc(-c2ccc(OC(F)(F)F)cc2)cs1 [Example 84, N-(3,5-Difluoro-4-hydroxybenzyl)-4-(4-trifluoromethoxyphenyl)-thiophene-2-carboxamide] | 0.56 | 3.06 |
| N#CCc1ccc(-c2ccc(-c3csc(C(=O)NCc4ccc(CC(=O)O)cc4)c3)cc2)cc1 [Example 109, 2-[4-({[4-(4′-Cyanomethyl-4-biphenyl)thien-2-yl]carboxamido}-methyl)phenyl]acetic acid] | 0.165 | 0.4 |
| O=C(O)Cc1ccc(CNC(=O)c2cc(-c3ccc(OC(F)(F)F)cc3)cs2)cc1 [Example 37, 2-[4-({[4-(4-Trifluoromethoxyphenyl)thien-2-yl]carboxamido}-methyl)phenyl]acetic acid] | 0.427 | 4.53 |
| CC(=O)c1cccc(-c2ccc(-c3csc(C(=O)NCCN4CCOCC4)c3)cc2)c1 [Example 76] | 0.48 | 3.7 |
| O=C(NCCN1CCOCC1)c1cc(-c2ccc(-c3cccc(O)c3)cc2)cs1 [Example 74, 4-[4-(3-Hydroxyphenyl)phenyl]-N-(2-morpholin-4-ylethyl)thiophene-2-carboxamide] | 0.465 | 6.25 |
| O=C(NC[C@H]1CC[C@H](C(=O)O)CC1)c1cc(-c2ccc(OC(F)(F)F)cc2)cs1 [Example 35, trans-4-({[4-(4-Trifluoromethoxyphenyl)thien-2-yl]-carboxamido}methyl)cyclohexanecarboxylic acid] | 0.405 | 3.45 |
| O=C(O)Cc1ccc(CNC(=O)c2cc(-c3ccc(-c4ccc(C(=O)C5CC5)cc4)cc3)cs2)cc1 [Example 105, 2-[4-({[4-(4′-Cyclopropylcarbonyl-4-biphenyl)thien-2-yl]-carboxamido}methyl)phenyl]acetic acid] | 0.05 | – |
| 3-[4-({[4-(4-Trifluoromethoxyphenyl)thien-2-yl]carboxamido}-methyl)phenyl]propanoic acid [Example 63] | 0.49 | 3.8 |
| O=C(O)Cc1ccc(CNC(=O)c2cc(-c3ccc(-c4ccccc4O)cc3)cs2)cc1 [Example 115] | 0.25 | 3.32 |
| O=C(NCC1CCC(C(=O)O)CC1)c1cc(-c2ccc(OC(F)(F)F)cc2)cs1 (stereo not shown) [Example 43, 4-({[4-(4-Trifluoromethoxyphenyl)thien-2-yl]carboxamido}-methyl)cyclohexanecarboxylic acid] | 0.715 | 5.37 |
| CC(=O)c1ccc(-c2ccc(-c3csc(C(=O)NCc4ccc(CC(=O)O)cc4)c3)cc2)c(O)c1 [Example 117, 2-{4-[({4-[4-(4-Acetyl-2-hydroxyphenyl)phenyl]thien-2-yl}-carboxamido)methyl]phenyl}acetic acid] | 0.16 | 0.31 |
| CC(=O)c1ccc(-c2ccc(-c3csc(C(=O)NCc4ccc(C(=O)O)cn4)c3)cc2)cc1 [Example 135, 6({[4-(4′-Acetyl-4-biphenyl)thien-2-yl]carboxamido}methyl)-nicotinic acid] | 0.042 | 0.08 |
| Cn1ccc(-c2ccc(-c3csc(C(=O)NCCN4CCOCC4)c3)cc2)n1 [Example 22, 4-[4-(1-Methyl-1H-pyrazol-3-yl)phenyl]-N-(2-morpholin-4-ylethyl)thiophene-2-carboxamide] | 0.915 | 11.6 |
| O=C(O)c1ccc(CNC(=O)c2cc(-c3ccc(OC(F)(F)F)cc3)cs2)nc1 [Example 45, 6-({[4-(4-Trifluoromethoxyphenyl)thien-2-yl]carboxamido}-methyl)nicotinic acid] | 0.92 | 2.85 |
| O=C(NC[C@H]1CC[C@H](C(=O)O)CC1)c1cc(-c2ccc(OC(F)(F)F)cc2)cs1 [Example 99, trans-4-({[4-(4-Trifluoromethoxyphenyl)thien-2-yl]carboxamido}-methyl)cyclohexanecarboxylic acid, Sodium Salt] | 0.45 | 5 |

| Compound | IC50 [1] [µM] | IC50 [2] [µM] |
| --- | --- | --- |
| O=C(O)Cc1ccc(CNC(=O)c2cc(-c3ccc(-c4cncnc4)cc3)cs2)cc1 [Example 111, 2-{4-[({4-[4-(Pyrimidin-5-yl)phenyl]thien-2-yl}carboxamido)-methyl]phenyl}acetic acid] | 0.7 | 2.2 |
| CCC(=O)c1ccc(-c2ccc(-c3csc(C(=O)NCc4ccc(CC(=O)O)cc4)c3)cc2)cc1 [Example 103, 2-[4-({[4-(4′-Propionyl-4-biphenyl)thien-2-yl]carboxamido}-methyl)phenyl]acetic acid] | 0.05 | – |
| O=C(NCCN1CCOCC1)c1cc(-c2ccc(-c3ccc(F)cc3)cc2)cs1 [Example 73, 4-[4-(4-Fluorophenyl)phenyl]-N-(2-morpholin-4-ylethyl)thiophene-2-carboxamide] | 0.355 | 0.4 |
| O=C(NCCN1CCOCC1)c1cc(-c2ccc(N3CCCC3)cc2)cs1 [Example 14, 4-[4-(Pyrrolidin-1-yl)phenyl]-N-(2-morpholin-4-ylethyl)thiophene-2-carboxamide] | 0.86 | 2.08 |
| O=C(NC[C@H]1CC[C@H](C(=O)O)CC1)c1cc(-c2ccc(-c3ccncc3)cc2)cs1 [Example 70, 4-[({4-[4-(Pyridinyl)phenyl]thien-2-yl}carboxamido)methyl]cyclo-hexanecarboxylic acid hydrochloride] | 0.022 | 0.285 |
| O=C(O)CCc1cccc(CNC(=O)c2cc(-c3ccc(OC(F)(F)F)cc3)cs2)c1 [Example 65, 3-[3-({[4-(4-Trifluoromethoxyphenyl)thien-2-yl]carboxamido}-methyl)phenyl]propanoic acid] | 0.685 | 2.9 |
| O=C(NCCN1CCOCC1)c1cc(-c2ccc(C3CCCCC3)cc2)cs1 [Example 21, 4-[4-(Cyclohexyl)phenyl]-N-(2-morpholin-4-ylethyl)thiophene-2-carboxamide] | 0.46 | 11 |
| O=C(NC1CCCCC1CO)c1cc(-c2ccc(OC(F)(F)F)cc2)cs1 (stereo not shown) [Example 121, N-[2-(Hydroxymethyl)cyclohexyl]-4-(4-trifluoromethoxyphenyl)-thiophene-2-carboxamide] | 0.72 | – |
| 2-[4-({[4-(4′-Benzoyl-4-biphenyl)thien-2-yl]carboxamido}-methyl)phenyl]acetic acid [Example 107] | 0.05 | – |
| O=C(O)CC[C@H]1CC[C@H](NC(=O)c2cc(-c3ccc(OC(F)(F)F)cc3)cs2)CC1 [Example 129, trans-3-(4-{[4-(4-Trifluoromethoxyphenyl)thien-2-yl]-carboxamido}cyclohexyl)propanoic acid] | 0.78 | 6.2 |
| CC(=O)c1ccc(-c2ccc(-c3csc(C(=O)NCc4ccc(CC(=O)O)cc4)c3)cc2)cc1O [Example 113] | 0.14 | – |
| O=C(NCCN1CCOCC1)c1cc(-c2ccc(-c3cccc(CO)c3)cc2)cs1 [Example 101, 4-{4-[3-(Hydroxymethyl)phenyl]phenyl}-N-(2-morpholin-4-ylethyl)-thiophene-2-carboxamide] | 0.99 | 3.7 |
| O=C(NCCN1CCOCC1)c1cc(-c2ccc(-c3ccncc3)cc2)cs1 [Example 9, 4-[4-(Pyridin-4-yl)phenyl]-N-(2-morpholin-4-ylethyl)thiophene-2-carboxamide] | 0.105 | 1.5 |
| CC(C)[C@H](NC(=O)c1cc(-c2ccc(OC(F)(F)F)cc2)cs1)C(=O)O [Example 150, (2S)-2-{[4-(4-Trifluoromethoxyphenyl)thien-2-yl]carboxamido}-3-methylbutanoic acid] | 0.78 | 10.1 |
| O=C(O)Cc1ccc(CNC(=O)c2cc(-c3ccc(Oc4ccccc4)cc3)cs2)cc1 [Example 81, 2-[4-({[4-(4-Phenoxyphenyl)thien-2-yl]carboxamido}methyl)phenyl]-acetic acid] | 0.5 | 3.7 |
| O=C(O)CC[C@@H]1CCC[C@@H](NC(=O)c2cc(-c3ccc(OC(F)(F)F)cc3)cs2)C1 (relative stereo) [Example 125, trans-3-(3-{[4-(4-Trifluoromethoxyphenyl)thien-2-yl]-carboxamido}cyclohexyl)propanoic acid] | 0.32 | 3.95 |
